# Experimental data as given in PubChem BioAssay AID2060906 (Molecular Pharmacology Branch, DTP, NCI, 2025).
# Test system: 485176-168-R4-J1-PDC complex spheroid growth
# Assay: Anticancer human tumor 485176-168-R4-J1-PDC patient-derived pancreatic adenocarcinoma cell line growth inhibition [RAS]
# Conditions: for IC50: curve of first compound; for viability, T/C: stronger effect = lower value
# In short: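 Agents were tested in combination matrices in half-log decrements from a top concentration at or near clinical Cmax (10 microM if undetermined). Targets were multi-cell spheroids of tumour lines plus HUVEC and MSC stromal cells.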
# 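Also: spheroids exposed to compounds for seven days before readout.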
# 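For viability, T/C in this document: luminescence viability expressed relative to DMSO vehicle wells set as 100%.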
smiles,measurement,setting,value
CCc1c2c(nc3ccc(O)cc13)-c1cc3c(c(=O)n1C2)COC(=O)[C@]3(O)CC + C#Cc1c(F)ccc2cc(O)cc(-c3ncc4c(N5CC6CCC(C5)N6)nc(OCC56CCCN5CC(F)C6)nc4c3F)c12,IC50,second compound 0.0316 µM,19.3 nM
same,IC50,second compound 0.1 µM,13.4 nM
same,IC50,second compound 0.316 µM,16.4 nM
same,IC50,second compound 1 µM,17.8 nM
same,IC50,second compound 3.16 µM,22.1 nM
same,IC50,second compound 10 µM,27.2 nM
same,"viability, T/C","second compound 0.0316 µM, first compound 0.000949 µM",93.9%
same,"viability, T/C","second compound 0.0316 µM, first compound 0.003 µM",82.8%
same,"viability, T/C","second compound 0.0316 µM, first compound 0.00949 µM",71.2%
same,"viability, T/C","second compound 0.0316 µM, first compound 0.03 µM",36.8%
same,"viability, T/C","second compound 0.0316 µM, first compound 0.0949 µM",16.7%
same,"viability, T/C","second compound 0.0316 µM, first compound 0.3 µM",7.74%
same,"viability, T/C","second compound 0.1 µM, first compound 0.000949 µM",102%
same,"viability, T/C","second compound 0.1 µM, first compound 0.003 µM",96.7%
same,"viability, T/C","second compound 0.1 µM, first compound 0.00949 µM",52.9%
same,"viability, T/C","second compound 0.1 µM, first compound 0.03 µM",32.2%
same,"viability, T/C","second compound 0.1 µM, first compound 0.0949 µM",18.3%
same,"viability, T/C","second compound 0.1 µM, first compound 0.3 µM",6.56%
same,"viability, T/C","second compound 0.316 µM, first compound 0.000949 µM",112%
same,"viability, T/C","second compound 0.316 µM, first compound 0.003 µM",107%
same,"viability, T/C","second compound 0.316 µM, first compound 0.00949 µM",60.7%
same,"viability, T/C","second compound 0.316 µM, first compound 0.03 µM",35.2%
same,"viability, T/C","second compound 0.316 µM, first compound 0.0949 µM",16%
same,"viability, T/C","second compound 0.316 µM, first compound 0.3 µM",6.47%
same,"viability, T/C","second compound 1 µM, first compound 0.000949 µM",102%
same,"viability, T/C","second compound 1 µM, first compound 0.003 µM",94.4%
same,"viability, T/C","second compound 1 µM, first compound 0.00949 µM",63%
same,"viability, T/C","second compound 1 µM, first compound 0.03 µM",38.6%
same,"viability, T/C","second compound 1 µM, first compound 0.0949 µM",15.9%
same,"viability, T/C","second compound 1 µM, first compound 0.3 µM",7.94%
same,"viability, T/C","second compound 3.16 µM, first compound 0.000949 µM",94.7%
same,"viability, T/C","second compound 3.16 µM, first compound 0.003 µM",101%
same,"viability, T/C","second compound 3.16 µM, first compound 0.00949 µM",69.3%
same,"viability, T/C","second compound 3.16 µM, first compound 0.03 µM",42.9%
same,"viability, T/C","second compound 3.16 µM, first compound 0.0949 µM",19.1%
same,"viability, T/C","second compound 3.16 µM, first compound 0.3 µM",9.06%
same,"viability, T/C","second compound 10 µM, first compound 0.000949 µM",127%
same,"viability, T/C","second compound 10 µM, first compound 0.003 µM",90.6%
same,"viability, T/C","second compound 10 µM, first compound 0.00949 µM",77.9%
same,"viability, T/C","second compound 10 µM, first compound 0.03 µM",46.6%
same,"viability, T/C","second compound 10 µM, first compound 0.0949 µM",17.7%
same,"viability, T/C","second compound 10 µM, first compound 0.3 µM",6.96%
C=CC(=O)Nc1cc(Nc2nccc(-c3cn(C)c4ccccc34)n2)c(OC)cc1N(C)CCN(C)C + C=CC(=O)N1CCN(c2nc(OCC3CCCN3C)nc3c(F)c(-c4nc(N)cc(C)c4C(F)(F)F)c(Cl)cc23)C(C)C1,IC50,second compound 0.00316 µM,> 1000 nM
same,IC50,second compound 0.01 µM,> 1000 nM
same,IC50,second compound 0.0316 µM,> 1000 nM
same,IC50,second compound 0.1 µM,> 1000 nM
same,IC50,second compound 0.316 µM,> 1000 nM
same,IC50,second compound 1 µM,> 1000 nM
same,"viability, T/C","second compound 0.00316 µM, first compound 0.00316 µM",101%
same,"viability, T/C","second compound 0.00316 µM, first compound 0.01 µM",111%
same,"viability, T/C","second compound 0.00316 µM, first compound 0.0316 µM",102%
same,"viability, T/C","second compound 0.00316 µM, first compound 0.1 µM",100%
same,"viability, T/C","second compound 0.00316 µM, first compound 0.316 µM",81.6%
same,"viability, T/C","second compound 0.00316 µM, first compound 1 µM",75.6%
same,"viability, T/C","second compound 0.01 µM, first compound 0.00316 µM",94.8%
same,"viability, T/C","second compound 0.01 µM, first compound 0.01 µM",102%
same,"viability, T/C","second compound 0.01 µM, first compound 0.0316 µM",109%
same,"viability, T/C","second compound 0.01 µM, first compound 0.1 µM",104%
same,"viability, T/C","second compound 0.01 µM, first compound 0.316 µM",96.7%
same,"viability, T/C","second compound 0.01 µM, first compound 1 µM",67.8%
same,"viability, T/C","second compound 0.0316 µM, first compound 0.00316 µM",111%
same,"viability, T/C","second compound 0.0316 µM, first compound 0.01 µM",122%
same,"viability, T/C","second compound 0.0316 µM, first compound 0.0316 µM",104%
same,"viability, T/C","second compound 0.0316 µM, first compound 0.1 µM",99.7%
same,"viability, T/C","second compound 0.0316 µM, first compound 0.316 µM",74.8%
same,"viability, T/C","second compound 0.0316 µM, first compound 1 µM",73.9%
same,"viability, T/C","second compound 0.1 µM, first compound 0.00316 µM",95.7%
same,"viability, T/C","second compound 0.1 µM, first compound 0.01 µM",94.2%
same,"viability, T/C","second compound 0.1 µM, first compound 0.0316 µM",98.7%
same,"viability, T/C","second compound 0.1 µM, first compound 0.1 µM",104%
same,"viability, T/C","second compound 0.1 µM, first compound 0.316 µM",90.9%
same,"viability, T/C","second compound 0.1 µM, first compound 1 µM",52.5%
same,"viability, T/C","second compound 0.316 µM, first compound 0.00316 µM",110%
same,"viability, T/C","second compound 0.316 µM, first compound 0.01 µM",102%
same,"viability, T/C","second compound 0.316 µM, first compound 0.0316 µM",90.8%
same,"viability, T/C","second compound 0.316 µM, first compound 0.1 µM",101%
same,"viability, T/C","second compound 0.316 µM, first compound 0.316 µM",84.7%
same,"viability, T/C","second compound 0.316 µM, first compound 1 µM",66.9%
same,"viability, T/C","second compound 1 µM, first compound 0.00316 µM",113%
same,"viability, T/C","second compound 1 µM, first compound 0.01 µM",99.6%
same,"viability, T/C","second compound 1 µM, first compound 0.0316 µM",100%
same,"viability, T/C","second compound 1 µM, first compound 0.1 µM",81%
same,"viability, T/C","second compound 1 µM, first compound 0.316 µM",75.5%
same,"viability, T/C","second compound 1 µM, first compound 1 µM",57.9%
CCC(CC)c1cc(NC2CCC(N)C2)n2nccc2n1 (stereo unspecified) + CCn1c(-c2cc(N3CCN(C)CC3)cnc2C(C)OC)c2c3cc(ccc31)-c1csc(n1)CC(NC(=O)C1CC1C)C(=O)N1CCCC(N1)C(=O)OCC(C)(C)C2,IC50,second compound 0.000949 µM,1130 nM
same,IC50,second compound 0.003 µM,1260 nM
same,IC50,second compound 0.00949 µM,1070 nM
same,IC50,second compound 0.03 µM,925 nM
same,IC50,second compound 0.0949 µM,1040 nM
same,IC50,second compound 0.3 µM,1000 nM
same,"viability, T/C","second compound 0.000949 µM, first compound 0.0316 µM",92.1%
same,"viability, T/C","second compound 0.000949 µM, first compound 0.1 µM",83.7%
same,"viability, T/C","second compound 0.000949 µM, first compound 0.316 µM",84.7%
same,"viability, T/C","second compound 0.000949 µM, first compound 1 µM",55.9%
same,"viability, T/C","second compound 0.000949 µM, first compound 3.16 µM",1.96%
same,"viability, T/C","second compound 0.000949 µM, first compound 10 µM",0.46%
same,"viability, T/C","second compound 0.003 µM, first compound 0.0316 µM",94.5%
same,"viability, T/C","second compound 0.003 µM, first compound 0.1 µM",94.3%
same,"viability, T/C","second compound 0.003 µM, first compound 0.316 µM",100%
same,"viability, T/C","second compound 0.003 µM, first compound 1 µM",62.4%
same,"viability, T/C","second compound 0.003 µM, first compound 3.16 µM",1.91%
same,"viability, T/C","second compound 0.003 µM, first compound 10 µM",0.43%
same,"viability, T/C","second compound 0.00949 µM, first compound 0.0316 µM",106%
same,"viability, T/C","second compound 0.00949 µM, first compound 0.1 µM",78.7%
same,"viability, T/C","second compound 0.00949 µM, first compound 0.316 µM",89.1%
same,"viability, T/C","second compound 0.00949 µM, first compound 1 µM",53.4%
same,"viability, T/C","second compound 0.00949 µM, first compound 3.16 µM",1.09%
same,"viability, T/C","second compound 0.00949 µM, first compound 10 µM",0.36%
same,"viability, T/C","second compound 0.03 µM, first compound 0.0316 µM",83.6%
same,"viability, T/C","second compound 0.03 µM, first compound 0.1 µM",84.1%
same,"viability, T/C","second compound 0.03 µM, first compound 0.316 µM",82.8%
same,"viability, T/C","second compound 0.03 µM, first compound 1 µM",47.6%
same,"viability, T/C","second compound 0.03 µM, first compound 3.16 µM",1.14%
same,"viability, T/C","second compound 0.03 µM, first compound 10 µM",0.38%
same,"viability, T/C","second compound 0.0949 µM, first compound 0.0316 µM",77.5%
same,"viability, T/C","second compound 0.0949 µM, first compound 0.1 µM",89%
same,"viability, T/C","second compound 0.0949 µM, first compound 0.316 µM",68.5%
same,"viability, T/C","second compound 0.0949 µM, first compound 1 µM",53%
same,"viability, T/C","second compound 0.0949 µM, first compound 3.16 µM",0.88%
same,"viability, T/C","second compound 0.0949 µM, first compound 10 µM",0.45%
same,"viability, T/C","second compound 0.3 µM, first compound 0.0316 µM",81.4%
same,"viability, T/C","second compound 0.3 µM, first compound 0.1 µM",70%
same,"viability, T/C","second compound 0.3 µM, first compound 0.316 µM",71.7%
same,"viability, T/C","second compound 0.3 µM, first compound 1 µM",50.1%
same,"viability, T/C","second compound 0.3 µM, first compound 3.16 µM",0.86%
same,"viability, T/C","second compound 0.3 µM, first compound 10 µM",0.45%
